Reference: ChEMBL document CHEMBL1201862, “PubChem BioAssay data set” (2004)
Calls of active or inactive are those of the source.

What was measured:
[1] = system: Vero; assay: cells; type: functional, cell-based; conditions: Chlorocebus sabaeus
[2] = cells; type: functional
[3] = biological target: T1, Cytochrome P450 2C9 (Homo sapiens, UniProt P11712)
[4] = biological target: Cytochrome P450 2C19 (Homo sapiens, UniProt P33261); assay: Cytochrome panel assay with activity outcomes. Panel member name: p450-cyp2c19 Compounds with AC50 equal or less than 10 uM are considered active; type: functional; conditions: read-out: AC50
[5] = biological target: Genome polyprotein (dengue virus type 2, UniProt P29990); assay: flavivirus cap methylation enzyme inhibition – biochemical, confirmation dose response, primary screen (AID 588689); type: functional
[6] = biological target: T2, Replicative DNA helicase DnaB (Mycobacterium tuberculosis, UniProt P9WMR3); assay: DnaB intein splicing inhibitors, dose response, biochemical, cell-free fluorescence (AID 449749); type: functional
T2 sequence (P9WMR3 whole entry): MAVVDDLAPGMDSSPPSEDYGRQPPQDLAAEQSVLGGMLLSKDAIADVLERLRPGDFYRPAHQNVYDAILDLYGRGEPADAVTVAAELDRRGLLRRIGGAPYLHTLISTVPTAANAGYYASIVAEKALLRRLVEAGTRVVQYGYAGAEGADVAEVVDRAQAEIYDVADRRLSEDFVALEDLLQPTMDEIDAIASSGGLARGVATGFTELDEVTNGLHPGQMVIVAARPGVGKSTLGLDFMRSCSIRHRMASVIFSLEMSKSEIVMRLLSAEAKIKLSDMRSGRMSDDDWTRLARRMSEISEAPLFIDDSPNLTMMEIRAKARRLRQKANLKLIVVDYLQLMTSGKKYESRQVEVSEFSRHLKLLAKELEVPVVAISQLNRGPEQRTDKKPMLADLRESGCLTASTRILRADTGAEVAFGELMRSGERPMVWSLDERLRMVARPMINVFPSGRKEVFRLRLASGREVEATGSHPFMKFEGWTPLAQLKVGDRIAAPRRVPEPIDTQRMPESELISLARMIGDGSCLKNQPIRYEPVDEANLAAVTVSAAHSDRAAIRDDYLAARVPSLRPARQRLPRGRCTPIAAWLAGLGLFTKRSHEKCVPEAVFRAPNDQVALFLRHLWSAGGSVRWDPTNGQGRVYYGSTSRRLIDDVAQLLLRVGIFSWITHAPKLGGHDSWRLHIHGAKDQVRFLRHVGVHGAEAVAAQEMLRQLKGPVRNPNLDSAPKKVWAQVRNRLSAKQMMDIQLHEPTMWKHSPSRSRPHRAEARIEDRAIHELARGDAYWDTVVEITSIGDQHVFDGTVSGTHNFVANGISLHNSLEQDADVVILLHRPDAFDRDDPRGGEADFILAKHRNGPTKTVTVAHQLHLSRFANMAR

[7] = biological target: T3, Protein RecA (Mycobacterium tuberculosis, UniProt P9WHJ3); assay: Fluorescence Cell-Free Homogeneous Dose Retest to Identify Inhibitors of RecA-Intein Splicing Activity. [Related pubchem assays (depositor defined):AID2097, AID2223, AID489010, AID492950]; type: functional
T3 sequence (P9WHJ3 whole entry): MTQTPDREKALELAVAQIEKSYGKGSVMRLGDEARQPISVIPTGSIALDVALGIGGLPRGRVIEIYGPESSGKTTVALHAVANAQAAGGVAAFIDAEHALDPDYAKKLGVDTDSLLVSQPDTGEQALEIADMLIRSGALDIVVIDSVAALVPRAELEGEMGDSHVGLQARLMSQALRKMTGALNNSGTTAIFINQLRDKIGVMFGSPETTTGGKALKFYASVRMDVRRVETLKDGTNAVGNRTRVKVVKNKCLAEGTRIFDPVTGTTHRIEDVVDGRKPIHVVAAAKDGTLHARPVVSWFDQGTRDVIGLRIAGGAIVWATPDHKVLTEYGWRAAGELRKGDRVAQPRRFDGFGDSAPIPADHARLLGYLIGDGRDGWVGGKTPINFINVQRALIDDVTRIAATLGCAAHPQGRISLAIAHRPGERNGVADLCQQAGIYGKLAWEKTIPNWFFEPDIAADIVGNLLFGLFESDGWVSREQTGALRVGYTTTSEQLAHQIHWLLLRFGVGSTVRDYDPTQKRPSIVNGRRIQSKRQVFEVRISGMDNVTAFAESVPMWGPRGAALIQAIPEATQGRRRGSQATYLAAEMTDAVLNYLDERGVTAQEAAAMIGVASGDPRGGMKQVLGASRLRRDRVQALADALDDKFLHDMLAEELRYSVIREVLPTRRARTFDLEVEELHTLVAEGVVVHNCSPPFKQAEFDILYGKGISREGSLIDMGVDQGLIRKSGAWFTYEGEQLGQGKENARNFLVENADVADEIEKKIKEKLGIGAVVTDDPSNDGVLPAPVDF

[8] = biological target: Fatty acid synthase (Homo sapiens, UniProt P49327); assay: inhibition of human FAS-TE enzyme activity – biochemical, kinetic fluorescence intensity, dose response (AID 624326); type: functional;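 further: rate of fluorescence rise from hydrolysis of a fluorogenic O-methyl fluorescein ester substrate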
[9] = blockade of melanocortin 4 receptor signaling – cell-based, plate reader, cherry pick, counter-screen for LGR2 antagonist project, dose response (AID 743444); type: functional;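 further: transfected HEK 293 cells stimulated with alpha-MSH peptide; potency of inhibitors of the alpha-MSH evoked signal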
[10] = blockers of bursicon-stimulated LGR2 cAMP reporter – cell-based, HEK293, CRE-luciferase reporter, cherry pick, set 2, dose response (AID 743343); type: functional;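 further: transfected cells were stimulated with diluted bursicon conditioned medium after compound addition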
[11] = viability loss in HEK293 cells – cell-based, plate reader, cherry-picked samples, cytotoxicity control, dose response (AID 743446); type: functional
[12] = biological target: T4, Microphthalmia-associated transcription factor (Homo sapiens, UniProt O75030); assay: reducers of TRPM1 reporter luminescence, concentration series – cell-based, SK-MEL-5, cherry-picked, set 3, MITF inhibitor project, dose response (AID 493073); type: functional;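 further: SK-MEL-5 melanoma cells with luciferase driven by the MITF target TRPM1 promoter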
T4 sequence (O75030 whole entry): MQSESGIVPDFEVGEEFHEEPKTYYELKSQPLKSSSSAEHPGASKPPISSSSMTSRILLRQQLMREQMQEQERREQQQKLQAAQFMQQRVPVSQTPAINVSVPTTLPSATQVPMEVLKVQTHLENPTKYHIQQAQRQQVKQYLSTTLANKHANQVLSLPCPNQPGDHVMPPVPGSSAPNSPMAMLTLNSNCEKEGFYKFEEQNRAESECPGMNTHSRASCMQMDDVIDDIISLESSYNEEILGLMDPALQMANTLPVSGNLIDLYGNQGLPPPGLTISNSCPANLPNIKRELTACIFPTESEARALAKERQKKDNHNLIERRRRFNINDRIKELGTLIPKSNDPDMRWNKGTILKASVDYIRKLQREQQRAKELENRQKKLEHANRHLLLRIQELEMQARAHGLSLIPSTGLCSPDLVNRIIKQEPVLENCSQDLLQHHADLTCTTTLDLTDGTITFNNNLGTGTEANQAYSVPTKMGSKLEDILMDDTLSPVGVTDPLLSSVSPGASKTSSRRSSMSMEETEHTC

[13] = biological target: T5, Coagulation factor XII (Homo sapiens, UniProt P00748); type: functional;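 further: activated factor XIIa alpha cleaving a fluorogenic AMC peptide substrate; inhibitor potency from loss of enzyme activity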
T5 sequence (P00748 whole entry): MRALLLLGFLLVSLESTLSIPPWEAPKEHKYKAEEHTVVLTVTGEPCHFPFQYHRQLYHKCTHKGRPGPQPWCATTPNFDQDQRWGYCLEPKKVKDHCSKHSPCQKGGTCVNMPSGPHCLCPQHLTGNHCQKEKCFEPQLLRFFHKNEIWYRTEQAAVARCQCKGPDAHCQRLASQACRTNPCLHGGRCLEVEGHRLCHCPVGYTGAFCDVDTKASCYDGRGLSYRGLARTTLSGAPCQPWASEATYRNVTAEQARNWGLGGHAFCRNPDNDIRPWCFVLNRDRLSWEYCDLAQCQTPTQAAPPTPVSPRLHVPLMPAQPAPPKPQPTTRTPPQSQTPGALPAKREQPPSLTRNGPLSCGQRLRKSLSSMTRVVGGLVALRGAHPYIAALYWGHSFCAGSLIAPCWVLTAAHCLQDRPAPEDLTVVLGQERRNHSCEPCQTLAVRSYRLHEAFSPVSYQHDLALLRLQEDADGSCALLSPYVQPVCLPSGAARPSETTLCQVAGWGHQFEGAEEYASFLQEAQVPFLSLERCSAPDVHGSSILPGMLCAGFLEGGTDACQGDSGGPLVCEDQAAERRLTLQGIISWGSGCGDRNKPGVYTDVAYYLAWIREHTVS

[14] = biological target: Cytochrome P450 3A4 (Homo sapiens, UniProt P08684);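 further: CYP3A4 tested as one member of a cytochrome P450 panel screen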
[15] = biological target: Cytochrome P450 2D6 (Homo sapiens, UniProt P10635);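 further: CYP2D6 member of a cytochrome P450 panel assay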
[16] = biological target: T1, Cytochrome P450 2C9; remark: listed apart in the source
[17] = off-target signal loss in HeLa-CEM21 co-culture – HeLa F-luc CTL cells, cherry-picked, counter-screen for HIV-1 Env fusion inhibitor project, dose response (AID 652040); type: functional, cell-based;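 further: potency for signal decrease marking cytotoxic or nonspecific inhibition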
[18] = HIV-1 AD8 envelope cell-cell fusion blockers – cherry-pick, dose response (AID 652062); type: functional, cell-based;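 further: luciferase signal from cell-cell fusion driven by HIV-1 clade B AD8 Env; potency is for inhibitors of fusion seen as a drop in luminescence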
[19] = blockers of HIV-1 ZM109 envelope-driven cell-cell fusion – HeLa effector, CEM target cells, luciferase, cherry-pick, dose response (AID 652058); type: functional, cell-based;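 further: luciferase signal from HIV-1 Env mediated cell-cell fusion of effector and target cells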
[20] = blockers of HIV-1 envelope-mediated cell-cell fusion – cherry-pick, dose response (AID 652057); type: functional, cell-based
[21] = NIH3T3 cell viability loss – ATP luminescence, mouse fibroblasts, counter-screen, dose response (AID 2010); type: functional, cell-based;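 further: cells exposed to compound for about 90 hours before reading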
[22] = system: INS1; assay: INS-1E survival protection against cytokine death – cell-based, luminescence, retest, dose response (AID 449756); type: functional; conditions: Rattus norvegicus;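 further: cell death triggered by IL-1 beta plus TNF-alpha plus IFN-gamma mixture; protective hits raise ATP signal compared with cytokine alone wells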
[23] = Trypanosoma cruzi growth suppression in host cells – NIH3T3 host cells, beta-gal luminescence, confirmation (AID 2044); type: functional, cell-based;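 further: intracellular parasites grown in NIH/3T3 mouse fibroblasts as host cells; luminescent beta-galactosidase reporter signal from transgenic T. cruzi replicating inside host cells; inhibitors lower the luminescence signal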
[24] = alpha-synuclein stem-loop luciferase translation blockers – H4 neuroglioma cells, luminescence, confirmation (AID 1988); type: functional, cell-based
[25] = luciferase reporter signal suppression in cells – H4 neuroglioma cells, luminescence, dose response (AID 1990); type: functional, cell-based
[26] = Luminescence Cell-Based Dose Response HTS to Identify Inhibitors of 5'UTR Stem-Loop Driven Prion Protein mRNA Translation in H4 Neuroglioblastoma Cells. [Related pubchem assays: 1827 (Project Summary), 1813 (Primary HTS)]; type: functional

Cytochrome P450 2C19, sequence (P33261 whole entry): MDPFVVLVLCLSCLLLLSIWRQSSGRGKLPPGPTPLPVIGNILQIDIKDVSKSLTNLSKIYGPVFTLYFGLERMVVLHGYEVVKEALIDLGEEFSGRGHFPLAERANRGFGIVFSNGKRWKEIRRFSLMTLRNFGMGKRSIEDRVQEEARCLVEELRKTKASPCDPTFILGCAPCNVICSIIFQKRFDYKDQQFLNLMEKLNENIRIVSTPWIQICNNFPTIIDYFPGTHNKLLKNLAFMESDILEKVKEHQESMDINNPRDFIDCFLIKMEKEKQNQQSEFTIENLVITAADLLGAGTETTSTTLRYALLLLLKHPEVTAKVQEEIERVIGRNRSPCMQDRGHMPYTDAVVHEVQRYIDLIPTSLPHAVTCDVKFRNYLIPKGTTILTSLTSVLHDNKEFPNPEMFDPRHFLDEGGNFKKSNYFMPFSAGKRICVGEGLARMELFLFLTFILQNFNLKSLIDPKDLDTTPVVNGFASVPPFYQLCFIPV
Genome polyprotein, sequence (P29990 2492-3391 limits assumed): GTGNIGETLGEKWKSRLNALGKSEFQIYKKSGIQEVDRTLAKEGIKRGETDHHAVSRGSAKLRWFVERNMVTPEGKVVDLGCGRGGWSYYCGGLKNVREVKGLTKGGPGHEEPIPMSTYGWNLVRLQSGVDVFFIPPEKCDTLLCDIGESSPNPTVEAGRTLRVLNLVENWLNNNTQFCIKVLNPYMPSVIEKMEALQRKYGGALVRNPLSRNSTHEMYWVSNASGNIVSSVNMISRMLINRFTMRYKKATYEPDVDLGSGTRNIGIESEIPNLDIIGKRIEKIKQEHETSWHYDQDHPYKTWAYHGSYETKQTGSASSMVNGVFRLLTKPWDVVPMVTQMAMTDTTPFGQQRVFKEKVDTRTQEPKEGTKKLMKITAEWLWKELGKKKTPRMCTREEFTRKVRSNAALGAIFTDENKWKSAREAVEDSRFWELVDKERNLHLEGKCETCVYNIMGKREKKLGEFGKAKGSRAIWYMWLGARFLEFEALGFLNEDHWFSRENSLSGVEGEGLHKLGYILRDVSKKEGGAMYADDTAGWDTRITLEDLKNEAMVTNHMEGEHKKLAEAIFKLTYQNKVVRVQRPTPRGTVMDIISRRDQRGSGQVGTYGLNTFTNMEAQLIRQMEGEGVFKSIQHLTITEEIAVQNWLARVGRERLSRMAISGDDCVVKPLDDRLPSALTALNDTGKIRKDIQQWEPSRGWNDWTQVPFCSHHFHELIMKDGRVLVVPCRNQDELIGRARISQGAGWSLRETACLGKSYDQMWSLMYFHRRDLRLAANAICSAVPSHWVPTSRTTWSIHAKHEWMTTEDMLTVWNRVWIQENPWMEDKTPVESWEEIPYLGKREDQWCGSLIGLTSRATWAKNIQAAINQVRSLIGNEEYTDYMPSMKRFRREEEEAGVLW
T1 sequence (P11712 whole entry): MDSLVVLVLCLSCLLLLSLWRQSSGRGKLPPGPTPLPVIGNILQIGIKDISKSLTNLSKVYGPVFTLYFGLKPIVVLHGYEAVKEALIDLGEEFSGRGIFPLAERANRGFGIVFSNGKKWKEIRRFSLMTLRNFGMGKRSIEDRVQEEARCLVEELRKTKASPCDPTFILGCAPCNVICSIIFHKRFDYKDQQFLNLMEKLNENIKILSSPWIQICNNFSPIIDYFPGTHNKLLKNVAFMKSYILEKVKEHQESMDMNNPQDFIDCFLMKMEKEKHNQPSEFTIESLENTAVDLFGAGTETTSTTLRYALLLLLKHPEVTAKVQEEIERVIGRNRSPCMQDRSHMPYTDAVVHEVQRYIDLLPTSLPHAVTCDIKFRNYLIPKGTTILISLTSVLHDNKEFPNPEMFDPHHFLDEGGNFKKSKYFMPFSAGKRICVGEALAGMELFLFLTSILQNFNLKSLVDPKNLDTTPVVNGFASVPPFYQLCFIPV
Cytochrome P450 3A4, sequence (P08684 whole entry): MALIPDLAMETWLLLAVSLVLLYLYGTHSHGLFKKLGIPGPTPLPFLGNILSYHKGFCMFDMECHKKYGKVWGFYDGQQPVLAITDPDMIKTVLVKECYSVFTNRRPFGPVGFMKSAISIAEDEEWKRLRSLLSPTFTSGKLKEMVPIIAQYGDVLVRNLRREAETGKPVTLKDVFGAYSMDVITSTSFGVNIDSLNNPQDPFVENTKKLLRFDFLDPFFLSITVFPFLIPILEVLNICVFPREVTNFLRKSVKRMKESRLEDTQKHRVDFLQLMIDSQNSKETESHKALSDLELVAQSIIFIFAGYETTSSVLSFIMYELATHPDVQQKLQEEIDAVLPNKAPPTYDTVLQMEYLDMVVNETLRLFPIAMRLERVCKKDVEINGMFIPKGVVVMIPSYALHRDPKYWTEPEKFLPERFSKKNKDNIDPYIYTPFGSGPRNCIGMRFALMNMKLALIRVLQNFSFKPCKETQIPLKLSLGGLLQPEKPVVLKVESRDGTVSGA
Cytochrome P450 2D6, sequence (P10635 whole entry): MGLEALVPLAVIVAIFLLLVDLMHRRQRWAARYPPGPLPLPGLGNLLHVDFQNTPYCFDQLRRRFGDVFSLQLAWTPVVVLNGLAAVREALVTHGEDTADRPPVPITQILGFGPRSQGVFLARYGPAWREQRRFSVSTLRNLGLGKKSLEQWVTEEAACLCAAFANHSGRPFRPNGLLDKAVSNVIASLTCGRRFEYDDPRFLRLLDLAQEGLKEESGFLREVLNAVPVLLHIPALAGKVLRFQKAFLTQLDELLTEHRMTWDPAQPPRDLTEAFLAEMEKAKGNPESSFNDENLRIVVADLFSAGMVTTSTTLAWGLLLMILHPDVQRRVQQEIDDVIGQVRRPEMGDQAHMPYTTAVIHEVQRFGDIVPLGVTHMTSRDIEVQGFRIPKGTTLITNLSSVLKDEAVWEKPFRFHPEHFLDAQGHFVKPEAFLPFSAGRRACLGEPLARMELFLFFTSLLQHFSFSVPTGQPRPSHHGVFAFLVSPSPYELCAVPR

OC1(c2cccs2)C[N+](c2ccc(Br)cc2)=C2SCCCN21 (stereo not given)
IC50 [1]: 14.9 µM (active)

CCC(C)n1nnc2c(=O)oc3ccccc3c21 (stereo not given)
IC50 [2]: 5.77 µM (active) | AC50 [3]: inconclusive | AC50 [4]: 8.91 µM (inconclusive)

COc1ccc(OC)c(N2C(=O)C(Cl)=C(N3CCOCC3)C2=O)c1
IC50 [5]: 18.1 µM (active) | AC50 [6]: 145 µM (active) | EC50 [7]: 26.3 µM (active)

NC(=NOC(=O)CCCc1ccccc1)c1cccc([N+](=O)[O-])c1
IC50 [8]: 11.6 µM (active)

Cc1cccc(-n2cccc2)c1C#N
AC50 [3]: inconclusive

O=[N+]([O-])c1cccc(/C=C/c2nc(O)nc(O)c2[N+](=O)[O-])c1
IC50 [5]: 72.8 µM (active)

Clc1ccc(OCc2nc(-c3ccccn3)no2)c(Br)c1
AC50 [9]: 10.6 µM (active) | AC50 [10]: 6.73 µM (active) | AC50 [11]: 27.6 µM (active)

O=C(CCl)N(Cc1cc(O)nc2ccccc12)c1ccccc1
AC50 [6]: 5.06 µM (active) | EC50 [7]: 2.38 µM (active) | AC50 [12]: 5.42 µM (active)

C=CCSC[C@@H]1Nc2cc(Cl)c(S(N)(=O)=O)cc2S(=O)(=O)N1
AC50 [3]: inconclusive

CCCC(=O)/N=C1\SC2CS(=O)(=O)CC2N1c1ccc(CC)cc1 (stereo not given)
IC50 [13]: > 50 µM (inactive) | AC50 [14]: 12.6 µM (inconclusive) | AC50 [15]: 15.8 µM (inconclusive) | AC50 [16]: 10 µM (inconclusive)

CCOC(=O)c1c(CSc2ccsc2)n(C)c2cc(Br)c(O)c(CN(C)C)c12
AC50 [17]: 2.45 µM (active) | AC50 [18]: 4.04 µM (active) | AC50 [19]: 2.34 µM (active) | AC50 [20]: 1.3 µM (active)

CON(C)c1nc(OCCNC(=O)OCc2ccc(Cl)cc2C)nc(N(C)C)n1
AC50 [17]: 2.32 µM (active) | AC50 [18]: 0.357 µM (active) | AC50 [19]: 2.22 µM (active) | AC50 [20]: 1.29 µM (active)

COc1ccc(C(=O)NC2CCCc3c2cnn3-c2cccc(C)c2C)o1 (stereo not given)
IC50 [1]: > 25 µM (active)

COc1cc(NC(=O)c2ccc([N+](=O)[O-])o2)ccc1NC(=O)c1cccs1
EC50 [21]: > 60 µM (not active) | AC50 [22]: 11.2 µM (active) | EC50 [23]: 0.548 µM (active) | AC50 [12]: 8.46 µM (active)

Cc1cccc2cc(=O)[nH]c(C)c12
AC50 [3]: inconclusive

C#CCOc1ccc(/C=C2/C(=O)N(c3cccc(C(=O)O)c3)N=C2C)cc1OC
IC50 [5]: 8.42 µM (active) | AC50 [6]: 2.41 µM (active) | EC50 [7]: 2.01 µM (active)

CC(C)OP(=O)(Nc1cccc2ccccc12)OC(C)C
AC50 [17]: 5.98 µM (active) | AC50 [18]: 7.86 µM (active) | AC50 [19]: 5.55 µM (active) | AC50 [20]: 4.78 µM (active)

Cc1ccccc1-c1nc(N2CCOCC2)c2ccccc2n1
AC50 [3]: inconclusive | AC50 [4]: 39.8 µM (inconclusive)

CCOc1cc2c(C)cc(=O)oc2cc1Cl
AC50 [3]: inconclusive | AC50 [4]: 14.1 µM (inconclusive)

Nc1[nH]nc2nc(NCc3ccccc3)c3c(c12)CCN(Cc1ccccc1)C3
EC50 [24]: > 120 µM (not active) | EC50 [25]: 20.1 µM (active) | EC50 [26]: 16.3 µM (active) | IC50 [1]: > 25 µM (active)
